The subject of one assay is S. aureus (Sa). Briefly: Broth microdilution MIC, S. aureus. Format: cell-based. The following applies: for MIC: Staphylococcus aureus, read-out: Sa + bicarb 25 (MIC). The method, boiled down:
(§1)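 MIC values come from a slightly modified CLSI broth microdilution, with eight two-fold compound dilutions tested in triplicate and 5×10^4 CFU/well. Growth medium was cation-adjusted Mueller-Hinton broth, alone or with 25 mM sodium bicarbonate or 0-50% heat-inactivated human serum.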

Another assay deals with E. coli (Ec). Briefly: Broth microdilution MIC, E. coli. Format: cell-based. Particulars: for MIC: Escherichia coli, read-out: E. coli + bicarb 25 (MIC). How it is done: A certified BSL-2 laboratory was used for testing. Compounds were evaluated using the broth microdilution minimum inhibitory concentration (MIC) and minimum bactericidal concentration (MBC) assays defined by Clinical and Laboratory Standards Institute (CLSI) in the M26-A guideline against S. aureus (Sa), E. coli (Ec), K. pneumoniae (Kp), A. baumannii (Ab), E. faecalis (Ef) and P. aeruginosa (Pa).
MICs were determined using the Clinical Laboratory and Standards Institute (CLSI) Broth Microdilution Method with slight modification. Clinical and Laboratory Standards Institute (2012). “Methods for dilution antimicrobial susceptibility tests for bacteria that grow aerobically; approved standard, 9th ed. M07-A9. Clinical and Laboratory Standards Institute, Wayne, PA.” Serial two-fold dilutions of compounds are prepared in sterile clear round-bottom 96-well plates.
To prepare microdilution trays, two-fold dilutions of antimicrobial agent are prepared in growth medium: Cation-Adjusted Mueller-Hinton Broth (CAMHB), or CAMHB supplemented with sodium bicarbonate (25 mM final concentration prepared from a 1.0 M stock solution) or CAMHB supplemented with heat inactivated human serum (Fisher Cat. #BP2657100) 0-50% by adding 200 μL of the highest concentration to be tested (64 μg/mL, for example) in row A, mixing and transferring 100 μL from row A to 100 μL growth medium in row B, then repeating the mixing and transferring through row H of the 96-well plate, discarding the excess 100 μL remaining. This slight modification to the CLSI protocol enables evaluation of MICs for 3 compounds per plate in triplicate, albeit with only 8 compound dilutions (CLSI protocol enables 2 compounds in triplicate with 10 dilutions). Bacterial suspensions are added to a final concentration of 5×10^4 CFU/well by adding 5 μL of a 1:10 dilution of a 0.5 McFarland suspension (1×10^8 CFU/mL) for each bacterium evaluated. Bacterial suspensions were prepared using the growth method described by CLSI. Well-isolated colonies (3-5 from an agar plate) were selected using a sterile loop and used to inoculate a tube containing 4 mL of CAMHB. The cultures are incubated at 35±2° C. until it achieves or exceeds the turbidity of the 0.5 McFarland standard, determined by measuring A600nm (usually two to six hours). When growth exceeds a 0.5 McFarland standard, the turbidity is adjusted with broth to be equivalent to a 0.5 McFarland standard.

For another assay, the system named is P. aeruginosa (Pa). Briefly: Broth microdilution MIC, P. aeruginosa. In kind it is cell-based. The following applies: for MIC: Pseudomonas aeruginosa, read-out: Pa + bicarb 25 (MIC). In outline: as §1
Another assay relates to A. baumannii (Ab). Briefly: Broth microdilution MIC, A. baumannii. In kind it is cell-based. Particulars: for MIC: Acinetobacter baumannii, read-out: Ab + bicarb 25 (MIC); for Ab + bicarb 25 (MIC): hydrochloride salt. In outline:
as §1

A further assay concerns E. faecalis (Ef). Briefly: Broth microdilution MIC, E. faecalis. Particulars: for MIC: Enterococcus faecalis, read-out: Ef + bicarb 25 (MIC). In kind it is cell-based. The method, boiled down: as §1
The test system of the next assay is E. coli S30 extract. Briefly: E. coli S30 extract: inhibition of bacterial protein synthesis (luciferase). In kind it is biochemical. Particulars: 37° C. 1 hour. In outline: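 Coupled transcription-translation in E. coli S30 extract, programmed with pBESTluc plasmid, was run with 8-point 2-fold compound dilutions for 1 h at 37 °C. After a cold stop, luciferase luminescence was read and percent inhibition calculated against no-inhibitor controls.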

Assay [1] addresses Rabbit Reticulocyte Lysate. Briefly: Rabbit Reticulocyte Lysate: inhibition of eukaryotic protein synthesis (luciferase). Format: biochemical. The following applies: 30° C. 90 minutes, read-out: Retic. IC50. The method, boiled down:
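Nuclease-treated rabbit reticulocyte lysate translating luciferase control RNA with complete amino acids; compounds in 8-point 2-fold dilutions, 90 min at 30° C. Luminescence read after luciferase reagent; % inhibition versus water (no-inhibitor) control, no-RNA wells as background.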

Where [2] appears, read: S. aureus, CAMHB supplemented with sodium bicarbonate 25 mM.
Where [3] appears, read: E. coli, CAMHB supplemented with sodium bicarbonate 25 mM.
[4] abbreviates: P. aeruginosa, CAMHB supplemented with sodium bicarbonate 25 mM.
Where [5] appears, read: A. baumannii, CAMHB supplemented with sodium bicarbonate 25 mM.
[6] abbreviates: E. faecalis, CAMHB supplemented with sodium bicarbonate 25 mM.

SMILES strings stand for the structures. pIC50: −log10 of the molar value. Counter-ions that a name gives are not always drawn. Like-named read-outs stand apart in the source and are kept apart here. Where only a bound is given, the exact number is not on record here.

As for `CC(C)(N)C(=O)N1CCN(C(=O)Nc2ccn(C3CCC(CN4C[C@@H]5[C@@H](N)[C@@H]5C4)CC3)c(=O)n2)CC1` (stereo partly drawn) [Compound 5, 4-(2-Amino-2-methylpropanoyl)-N-(1-(4-((exo-6-amino-3-azabicyclo[3.1.0]hexan-3-yl)methyl)cyclohexyl)-2-oxo-1,2-dihydropyrimidin-4-yl)piperazine-1-carboxamide hydrochloride salt], the “Sa + bicarb 25 (MIC)” value with S. aureus (Sa) (setting [2]) is “+++ (An MIC value (μg/mL) that is less than 8 μg/mL)”. The “E. coli + bicarb 25 (MIC)” value in the assay with E. coli (Ec) (setting [3]) was “+++ (An MIC value (μg/mL) that is less than 8 μg/mL)”. The “Pa + bicarb 25 (MIC)” value in the assay on P. aeruginosa (Pa) (setting [4]) is reported as “+ (An MIC value (μg/mL) that is 32 μg/mL or greater)”. Besides, the MIC with A. baumannii (Ab) is 8 to 32 µg/mL; in the assay on E. faecalis (Ef) it was less than 8 µg/mL. The figures for the pIC50 (with E. coli S30 extract (hydrochloride salt); in assay [1]) were greater than 6.30 and no more than 6.00, respectively.

In the case of `CC(C)(N)C(=O)N1CCN(C(=O)Nc2ccn(C3CCC(CN4C[C@@H]5[C@@H](N)[C@@H]5C4)CC3)c(=O)n2)CC1` (stereo partly drawn) [Compound 6, 4-(2-Amino-2-methylpropanoyl)-N-(1-(cis-4-((exo-6-amino-3-azabicyclo[3.1.0]hexan-3-yl)methyl)cyclohexyl)-2-oxo-1,2-dihydropyrimidin-4-yl)piperazine-1-carboxamide hydrochloride salt], the MIC is less than 8 µg/mL in the assay with S. aureus (Sa) (setting [2]), less than 8 µg/mL with E. coli (Ec) (setting [3]), greater than 32 µg/mL in the assay with P. aeruginosa (Pa) (setting [4]) and 8 to 32 µg/mL with E. faecalis (Ef) (setting [6]). For the same compound, in the assay on A. baumannii (Ab) (setting [5]), the “Ab + bicarb 25 (MIC)” value is recorded as “+ (An MIC value (μg/mL) that is 32 μg/mL or greater)”. The negative logarithm of the IC50 (pIC50) (in the assay on E. coli S30 extract (hydrochloride salt); in assay [1]) was no more than 6.00 each time.

For `CC(C)(N)C(=O)N1CCN(C(=O)Nc2ccn(C3CCC(CN4C[C@@H]5[C@@H](N)[C@@H]5C4)CC3)c(=O)n2)CC1` (stereo partly drawn) [Compound 7, 4-(2-Amino-2-methylpropanoyl)-N-(1-(trans-4-((exo-6-amino-3-azabicyclo[3.1.0]hexan-3-yl)methyl)cyclohexyl)-2-oxo-1,2-dihydropyrimidin-4-yl)piperazine-1-carboxamide hydrochloride salt], the “Sa + bicarb 25 (MIC)” value in the assay with S. aureus (Sa) (setting [2]) was “+++ (An MIC value (μg/mL) that is less than 8 μg/mL)”. Further, the “E. coli + bicarb 25 (MIC)” value with E. coli (Ec) (setting [3]) is “+++ (An MIC value (μg/mL) that is less than 8 μg/mL)”. The “Pa + bicarb 25 (MIC)” value in the assay on P. aeruginosa (Pa) (setting [4]) is “+ (An MIC value (μg/mL) that is 32 μg/mL or greater)”. The “Ab + bicarb 25 (MIC)” value in the assay with A. baumannii (Ab) (setting [5]) was “++ (An MIC value (μg/mL) that is 8 μg/mL or greater and less than 32 μg/mL)”. The “Ef + bicarb 25 (MIC)” value with E. faecalis (Ef) (E. faecalis, CAMHB supplemented with sodium bicarbonate 25 mM, hydrochloride salt) is “+++ (An MIC value (μg/mL) that is less than 8 μg/mL)”. The pIC50 in the assay with E. coli S30 extract (hydrochloride salt) is greater than 6.30; in assay [1], no more than 6.00.

Take `CC(C)(N)C(=O)N1CCN(C(=O)Nc2ccn(C3CCC(CN4C[C@@H]5[C@@H](CN)[C@@H]5C4)CC3)c(=O)n2)CC1` (stereo partly drawn) [Compound 8, 4-(2-Amino-2-methylpropanoyl)-N-(1-(4-((exo-6-(aminomethyl)-3-azabicyclo[3.1.0]hexan-3-yl)methyl)cyclohexyl)-2-oxo-1,2-dihydropyrimidin-4-yl)piperazine-1-carboxamide hydrochloride salt]: the MIC with S. aureus (Sa) (setting [2]) was less than 8 µg/mL; in the assay with E. coli (Ec) (setting [3]), less than 8 µg/mL; in the assay on P. aeruginosa (Pa) (setting [4]) it was 8 to 32 µg/mL; in the assay with A. baumannii (Ab) (setting [5]), greater than 32 µg/mL; in the assay on E. faecalis (Ef) (setting [6]), less than 8 µg/mL. Further, the pIC50 was greater than 6.30 in the assay on E. coli S30 extract and no more than 6.00 in assay [1].

Take `CC(C)(N)C(=O)N1CCN(C(=O)Nc2ccn(C3CCC(CN4CCCC(N)CC4)CC3)c(=O)n2)CC1` (stereo not drawn) [Compound 9, 4-(2-Amino-2-methylpropanoyl)-N-(1-(4-((4-aminoazepan-1-yl)methyl)cyclohexyl)-2-oxo-1,2-dihydropyrimidin-4-yl)piperazine-1-carboxamide hydrochloride salt]: the MIC in the assay with S. aureus (Sa) is less than 8 µg/mL; in the assay with E. coli (Ec), less than 8 µg/mL; in the assay on P. aeruginosa (Pa), greater than 32 µg/mL; in the assay with A. baumannii (Ab), 8 to 32 µg/mL; with E. faecalis (Ef) it was less than 8 µg/mL. Moreover, the figures for the pIC50 (in the assay with E. coli S30 extract; in assay [1]) were greater than 6.30 and no more than 6.00, respectively.

As to `CC(C)(N)C(=O)N1CCN(C(=O)Nc2ccn(C3=CCC(CN4C[C@@H]5[C@@H](N)[C@@H]5C4)CC3)c(=O)n2)CC1` (stereo partly drawn) [Compound 12, 4-(2-Amino-2-methylpropanoyl)-N-(1-(4-(((1R,5S,6s)-6-amino-3-azabicyclo[3.1.0]hexan-3-yl)methyl)cyclohex-1-en-1-yl)-2-oxo-1,2-dihydropyrimidin-4-yl)piperazine-1-carboxamide hydrochloride salt], the minimum inhibitory concentration (MIC) with S. aureus (Sa) (setting [2]) is less than 8 µg/mL; with E. coli (Ec) (setting [3]) it was less than 8 µg/mL; in the assay with P. aeruginosa (Pa) (setting [4]), greater than 32 µg/mL; with A. baumannii (Ab) (setting [5]) it was 8 to 32 µg/mL; with E. faecalis (Ef) (setting [6]) it was less than 8 µg/mL. Besides, the pIC50 with E. coli S30 extract is greater than 6.30; in assay [1] it was no more than 6.00.

With `CC(C)(N)C(=O)N1CCN(C(=O)Nc2ccn(C3CCC(CN[C@H]4CC[C@H](N)C4)CC3)c(=O)n2)CC1` (stereo partly drawn) [Compound 13, 4-(2-Amino-2-methylpropanoyl)-N-(1-(4-((((1S,3S)-3-aminocyclopentyl)amino)methyl)cyclohexyl)-2-oxo-1,2-dihydropyrimidin-4-yl)piperazine-1-carboxamide hydrochloride salt], the MIC with S. aureus (Sa) was less than 8 µg/mL; in the assay with E. coli (Ec) it was less than 8 µg/mL; with P. aeruginosa (Pa), greater than 32 µg/mL; in the assay with A. baumannii (Ab) it was greater than 32 µg/mL; in the assay with E. faecalis (Ef) it was 8 to 32 µg/mL. Besides, the figures for the pIC50 (in the assay on E. coli S30 extract; in assay [1]) were greater than 6.30 and no more than 6.00, respectively.

As for `CC(C)(N)C(=O)N1CCN(C(=O)Nc2ccn(C3CCC(CN4CC(CN)C4)CC3)c(=O)n2)CC1` (stereo not drawn) [Compound 14, 4-(2-Amino-2-methylpropanoyl)-N-(1-(4-((3-(aminomethyl)azetidin-1-yl)methyl)cyclohexyl)-2-oxo-1,2-dihydropyrimidin-4-yl)piperazine-1-carboxamide hydrochloride salt], the minimal inhibitory concentration (MIC) in the assay with S. aureus (Sa) was less than 8 µg/mL; in the assay with E. coli (Ec) it was less than 8 µg/mL; in the assay on P. aeruginosa (Pa), greater than 32 µg/mL; in the assay on A. baumannii (Ab), greater than 32 µg/mL; in the assay with E. faecalis (Ef) it was 8 to 32 µg/mL. Further, the results for the pIC50 (in the assay on E. coli S30 extract; in assay [1]) were greater than 6.30 and no more than 6.00, respectively.

On to `CC(C)(N)C(=O)N1CCN(C(=O)Nc2ccn(C3CCC(CN4CCC5(CC4)CC(N)C5)CC3)c(=O)n2)CC1` (stereo not drawn) [Compound 16, 4-(2-Amino-2-methylpropanoyl)-N-(1-(4-((2-amino-7-azaspiro[3.5]nonan-7-yl)methyl)cyclohexyl)-2-oxo-1,2-dihydropyrimidin-4-yl)piperazine-1-carboxamide hydrochloride salt], for which the MIC in the assay on S. aureus (Sa) is less than 8 µg/mL; with E. coli (Ec), less than 8 µg/mL; in the assay on P. aeruginosa (Pa), 8 to 32 µg/mL; in the assay on A. baumannii (Ab), less than 8 µg/mL; in the assay on E. faecalis (Ef) it was less than 8 µg/mL. Also, the pIC50 in the assay with E. coli S30 extract is greater than 6.30; in assay [1], no more than 6.00.

For the origin of these results see patent publication US20250084041A1, “ANTIMICROBIAL COMPOUNDS AND METHODS” (Curza Global, LLC, priority 2021, published 2025).
